According to patent publication US12398157B2, “Energy-efficient solvent-free method for producing metal chelates” (TECHNISCHE UNIVERSITAT CLAUSTHAL, priority 2017, dated 2025):

Test: particle size distribution by laser light scattering
Type: physicochemical
Conditions: volumetric, product of working example 1
Description: The product is obtained in a particularly finely divided form with a narrow particle size distribution. The latter can, for example, be seen from the ratio of the D values, D99, D90, D50, (D10). The D value indicates the percentage of particles smaller than the diameter given as the respective D value. The percentage is given as index, i.e.: D90= . . . means “90% of the particles have a (volumetrically determined) diameter of less than . . . ”. The associated data are obtained by means of laser light scattering.
The particle size distribution of the zinc bisglycinate produced as described in working example 1 and shown in FIG. 2a was examined more closely by means of laser light scattering. The results are shown in graph form in FIG. 2c.

D10 (10% of the particles have diameters of less than): 0.86 μm
D50 (50% of the particles have diameters of less than): 3.41 μm
D90 (90% of the particles have diameters of less than): 6.82 μm
D99 (99% of the particles have diameters of less than): 10.00 μm
Structure (SMILES): NCC(=O)[O-].NCC(=O)[O-].[Zn+2] [zinc bisglycinate, bis(glycinato-N,O)zinc]
